Assay [1] has as its system HL-60. Briefly: Compound was tested for differentiation-inducing activity against human promyelocytic leukemia cell line HL-60. The format is functional. The conditions noted are these: read-out: ED50 (the source's name).
In assay [2] the test system is HL-60. Briefly: Relative activity expressed as mean of ratio of effective dose of retinoic acid against HL-60 cell versus the compound. The class given is functional, Homo sapiens.

The structures appear in SMILES notation. Some results are limits rather than exact numbers.

Take `CN(C(=O)c1ccc2c(c1)C(C)(C)CCC2(C)C)c1ccc(C(=O)O)cc1`: the EC50 in the assay on HL-60 [1] is > 1000 nM. The Relative activity in the assay on HL-60 [2] is < 0.01.

On to `CC1(C)CCC(C)(C)c2cc(C(=O)Nc3ccc(C(=O)O)cc3)ccc21`, for which the EC50 with HL-60 [1] turned out to be 0.34 nM. Further, the Relative activity in the assay with HL-60 [2] is recorded as 720.

Turning to `CC1=C(/C=C/C(C)=C/C=C/C(C)=C/C(=O)O)C(C)(C)CCC1` [TRETINOIN], the EC50 with HL-60 [1] worked out at 2.4 nM. In addition, the Relative activity with HL-60 [2] came out at 100.

On to `CC1(C)CCC(C)(C)c2cc3c(cc21)CCN3C(=O)c1ccc(C(=O)O)cc1`, for which the EC50 in the assay with HL-60 [1] was determined as 150 nM. For the same compound, the Relative activity in the assay with HL-60 [2] is reported as 1.1.

With `CC1(C)CCC(C)(C)c2cc3c(cc21)CN(c1ccc(C(=O)O)cc1)C3=O`, the EC50 with HL-60 [1] stood at 510 nM. For the same compound, the Relative activity in the assay on HL-60 [2] is on record as 0.33.

Take `CN(C(=O)c1ccc(C(=O)O)cc1)c1ccc2c(c1)C(C)(C)CCC2(C)C`: the EC50 in the assay with HL-60 [1] was > 1000 nM. Moreover, the Relative activity in the assay with HL-60 [2] was <0.01.

In the case of `CC1(C)CCC(C)(C)c2cc3c(ccn3C(=O)c3ccc(C(=O)O)cc3)cc21`, in the assay with HL-60 [1], the EC50 turned out to be 65 nM. The Relative activity in the assay with HL-60 [2] stood at 2.6.

Turning to `CC1(C)CCC(C)(C)c2cc(NC(=O)c3ccc(C(=O)O)cc3)ccc21` [TAMIBAROTENE], in the assay on HL-60 [1], the EC50 came to 0.79 nM. Besides, the Relative activity in the assay on HL-60 [2] amounted to 350.

The values above are taken from ChEMBL document CHEMBL1124350, “Retinobenzoic acids. 4. Conformation of aromatic amides with retinoidal activity. Importance of trans-amide structure for the activity” (1989).
